Blank lines part the entries; values can stand above or below the molecule they belong to.
How the values were obtained:
[1] = target: T1, MUC1-CD (Homo sapiens, UniProt P15941); assay: Plate-based MUC1-CD dimerization inhibition assay (primary screening); type: biochemical; details: library of Table 1
T1 construct: the 72 aa cytoplasmic domain (CD); His; made in house
T1 sequence (P15941 1184-1255 limits assumed): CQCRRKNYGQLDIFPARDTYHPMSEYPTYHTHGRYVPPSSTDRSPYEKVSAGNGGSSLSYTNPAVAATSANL
Method: FIG. 6—Schematic Illustration of Primary HTS Screening Assay for MUC1-CD Dimerization. MUC1-CD protein was coated on a 96 well plate and then incubated with Biotinylated MUC1-CD that binds to non-biotinylated MUC1-CD protein by dimer formation. Bound biotinylated MUC1-CD protein was detected by incubation with Streptavin-HRP+peroxidase substrate system.
FIGS. 11A-C—Identification of MUC1-CD dimerization inhibitors in a small molecule screen. (FIG. 11A) Schematic representation of the MUC1-C subunit with the 58 amino acid (aa) extracellular domain (ECD), the 28 aa transmembrane domain (TD) and the 72 aa cytoplasmic domain (CD; SEQ ID NO: 1). The sequence of MUC1-CD is included with highlighting of the CQC dimerization motif. (FIG. 11B) The assay for identification of MUC1-CD dimerization inhibitors is depicted with the following steps: (i) coating of MUC1-CD onto a microplate, (ii) adding soluble biotinylated MUC1-C and […] compound, and (iii) addition of streptavidin-HRP and then peroxide with conversion by HRP to a blue color. The signal is measured by EnVision and proportional to the amount of bound biotin-labeled MUC1-CD.
FIGS. 12A-D—Apigenin is an inhibitor of MUC1-CD dimerization in vitro and in cells. (FIG. 12A) Structures of apigenin and its analogue baicalein. Using the in vitro screening assay, dimerization of MUC1-CD was assessed in the presence of 100 μM apigenin or 100 μM baicalein each dissolved in 0.1% DMSO. The results (mean±SD of 3 determinations) are expressed as percentage of control dimerization in the presence of DMSO alone. (FIG. 12B) MUC1-CD dimerization was assessed in the presence of the indicated concentrations of apigenin in the in vitro screening assay. […] (FIG. 12C) Soluble MUC1-CD was incubated in the presence of 1% DMSO, 1 mM apigenin or 1 mM baicalein for 1 h at room temperature. Monomers and dimmers were assessed by electrophoresis in a non-reducing gel and immunoblotting with anti-MUC1-C. (FIG. 12D) 293 cells were transiently transfected to express an empty vector or GFP-MUC1-CD and Flag-MUC1-CD. At six hours after transfection, the cells were left untreated, and treated with 75 μM apigenin or baicalein for 3 days. Whole-cell lysates were precipitated with anti-Flag, and the precipitates were immunoblotted with the indicated antibodies.
Multi-well (96- or 384-well) plates are coated with non-biotinylated MUC1-CD, and biotinylated MUC1-CD is added to the plates to initiate MUC1-CD dimerization or oligomerization. A luminescent substrate for biotin binding is added to the plate, followed by washing. Resulting fluorescence is detected by luminescence detection at absorbance 405 nm. A complete schematic illustration of this assay is described in […]. Test compounds are added at multiple concentrations to the plates and, following incubation and washing, the plates are read for luminescent detection. The formation of MUC1-CD dimers is detected.
To develop a HTS assay for compounds that inhibit MUC1-CD dimerization, the inventors generated purified His-tagged MUC1-CD protein. They also generated a biotin-labeled His-tagged MUC1-CD protein using a standard biotinylation kit. Biotinylated and non-biotinylated proteins were purified through Nickel columns.
The inventors coated 96- or 384-well plates with non-biotinylated MUC1-CD protein and added biotinylated MUC1-CD protein to the plates to initiate MUC1-CD/MUC1-CD dimerization or oligomerization. They then added a substrate to the plate which will bind to the biotinylated protein (only at the dimer or oligomer state) and the resultant fluorescence was detected by luminescence detection at absorbance 405 nm. A complete schematic illustration of this assay is described in FIG. 6.
Individual compounds from the chemical libraries were then added at multiple concentrations (0.01 μM to 100 μM) to the plates and following incubation and washing, the plates were read by luminescence detection at […]. […]

[2] = test system: hyperammonemia; details: oral administration, ammonium chloride-treated rats; cited from earlier work
[3] = test system: MUC1-expressing cancer cells; assay: Secondary screen against MUC1-expressing cancer cells in vitro; type: cell-based; details: legend: ZR-75-1 breast carcinoma cells, 2 days, anti-MUC1-C immunoblot
Method: ZR-75-1 breast carcinoma cells were treated with […] Kaempterol for 2 days. Total cell lysates were then analyzed by immunoblotting with anti-MUC1-C antibody (FIG. 17A) or with anti-Actin antibodies (FIG. 17B).
Initial screens were performed in the presence of compounds at a concentration of 100 μM.

[4] = cited from earlier work
[5] = test system: mitogen-activated protein kinase kinase (MEK); details: cited from earlier work
[6] = target: T2, aryl hydrocarbon receptor (AHR) (Rattus norvegicus, UniProt P41738); details: rat liver cytosol, added just before TCDD; cited from earlier work
T2 construct: Addition of PD98059 to rat liver cytosol just before the addition of TCDD; from tissue; host or cells: rat liver cytosol
T2 sequence (P41738 10-853): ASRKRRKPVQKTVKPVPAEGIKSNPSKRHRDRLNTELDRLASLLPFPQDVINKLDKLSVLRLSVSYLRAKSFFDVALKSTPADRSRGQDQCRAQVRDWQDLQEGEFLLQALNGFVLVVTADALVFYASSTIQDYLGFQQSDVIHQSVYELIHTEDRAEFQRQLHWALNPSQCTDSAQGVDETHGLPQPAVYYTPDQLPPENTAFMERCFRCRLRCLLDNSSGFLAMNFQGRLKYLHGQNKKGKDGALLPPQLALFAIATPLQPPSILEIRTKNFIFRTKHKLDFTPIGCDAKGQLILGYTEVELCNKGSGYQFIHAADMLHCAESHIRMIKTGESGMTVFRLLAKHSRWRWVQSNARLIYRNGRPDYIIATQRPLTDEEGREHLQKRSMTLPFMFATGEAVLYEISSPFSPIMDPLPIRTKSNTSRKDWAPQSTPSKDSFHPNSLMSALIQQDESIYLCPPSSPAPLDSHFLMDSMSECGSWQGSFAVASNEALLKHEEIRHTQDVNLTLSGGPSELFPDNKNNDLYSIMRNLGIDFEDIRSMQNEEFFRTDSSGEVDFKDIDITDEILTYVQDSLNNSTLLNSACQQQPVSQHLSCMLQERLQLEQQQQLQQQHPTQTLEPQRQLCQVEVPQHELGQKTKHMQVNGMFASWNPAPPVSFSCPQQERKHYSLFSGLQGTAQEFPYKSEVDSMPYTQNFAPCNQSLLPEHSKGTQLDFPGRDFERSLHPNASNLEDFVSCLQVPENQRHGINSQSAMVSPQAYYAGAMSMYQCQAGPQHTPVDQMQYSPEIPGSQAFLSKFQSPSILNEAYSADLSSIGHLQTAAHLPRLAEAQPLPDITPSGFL

[7] = target: T3, His-MUC1-CD (Homo sapiens, UniProt P15941); details: BIAcore analysis, Leng et al., 2007; read-out: dissociation constant (Kd) of MUC1-CD dimers; cited from earlier work
T3 construct: made in house
T3 sequence (P15941 1184-1255): T1 sequence (P15941 1184-1255 limits assumed)

[8] = test system: severe sepsis; details: from about 31% without; cited from earlier work
[9] = target: xanthine oxidase (Homo sapiens, UniProt P47989); details: cited from earlier work
Chain of xanthine oxidase (P47989 whole entry, species assumed): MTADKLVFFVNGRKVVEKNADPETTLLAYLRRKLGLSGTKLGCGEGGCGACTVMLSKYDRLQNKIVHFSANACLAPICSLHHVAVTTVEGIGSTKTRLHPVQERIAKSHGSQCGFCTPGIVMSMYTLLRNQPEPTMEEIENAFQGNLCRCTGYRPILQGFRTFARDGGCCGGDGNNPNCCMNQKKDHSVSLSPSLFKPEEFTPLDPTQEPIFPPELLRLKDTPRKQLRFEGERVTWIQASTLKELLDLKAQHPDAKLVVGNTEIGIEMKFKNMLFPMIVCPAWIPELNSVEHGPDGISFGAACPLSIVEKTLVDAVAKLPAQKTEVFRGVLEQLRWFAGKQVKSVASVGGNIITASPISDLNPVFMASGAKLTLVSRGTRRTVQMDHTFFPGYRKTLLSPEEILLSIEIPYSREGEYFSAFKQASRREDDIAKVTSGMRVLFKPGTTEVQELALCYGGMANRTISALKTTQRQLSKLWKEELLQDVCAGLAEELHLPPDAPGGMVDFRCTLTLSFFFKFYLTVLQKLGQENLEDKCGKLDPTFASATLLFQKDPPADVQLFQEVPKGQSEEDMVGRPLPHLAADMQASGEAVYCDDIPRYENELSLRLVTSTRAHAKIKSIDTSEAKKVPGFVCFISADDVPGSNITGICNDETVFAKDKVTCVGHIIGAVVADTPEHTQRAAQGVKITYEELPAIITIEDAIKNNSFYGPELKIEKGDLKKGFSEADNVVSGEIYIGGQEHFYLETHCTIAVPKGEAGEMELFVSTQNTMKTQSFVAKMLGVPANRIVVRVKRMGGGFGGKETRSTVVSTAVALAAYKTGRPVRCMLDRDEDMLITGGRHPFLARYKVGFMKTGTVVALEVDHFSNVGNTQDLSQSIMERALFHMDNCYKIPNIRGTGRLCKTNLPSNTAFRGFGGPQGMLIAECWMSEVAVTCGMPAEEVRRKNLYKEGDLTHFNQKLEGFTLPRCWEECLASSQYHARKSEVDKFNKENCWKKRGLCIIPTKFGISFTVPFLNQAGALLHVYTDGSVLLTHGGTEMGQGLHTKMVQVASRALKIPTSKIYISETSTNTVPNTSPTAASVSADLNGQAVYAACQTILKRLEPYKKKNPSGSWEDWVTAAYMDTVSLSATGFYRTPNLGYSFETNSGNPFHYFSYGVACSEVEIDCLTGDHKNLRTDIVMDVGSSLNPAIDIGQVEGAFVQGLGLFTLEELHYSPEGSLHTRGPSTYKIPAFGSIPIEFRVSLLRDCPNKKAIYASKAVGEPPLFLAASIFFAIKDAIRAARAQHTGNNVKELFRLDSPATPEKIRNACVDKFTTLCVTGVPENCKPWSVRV

- initial library screen result [1]: MUC1 dimerization inhibitory compounds
Molecule: O=c1c(O)c(-c2ccc(O)cc2O)oc2cc(O)cc(O)c12 [Morin, 3,5,7,2′,4′-pentahydroxyflavone]
- ammonia, urea, lipid peroxidation [2]: significant reduction in ammonia, urea, lipid peroxidation

Molecule: O=c1c(O)c(-c2ccc(O)cc2)oc2cc(O)cc(O)c12 [Kaempferol]
- inhibition (FIGS. 17A-B) [3]: showed inhibition
- solubility in organic solvents ([4]; hot ethanol and diethyl ether): soluble in hot ethanol and diethyl ether
- solubility in water ([4]; water): slightly soluble in water

Molecule: COc1cccc(-c2cc(=O)c3ccccc3o2)c1N [PD98059, 2-(2′-amino-3′-methoxyphenyl)-oxanaphthalen-4-one]
- initial library screen result [1]: MUC1 dimerization inhibitory compounds
- inhibition of MEK [5]: potent inhibitor
- TCDD binding to AHR [6]: suppressed TCDD binding

Molecule: MUC1-CD: 72-amino acid MUC1 cytoplasmic domain (SEQ ID NO:1)
- Kd [7]: 33 nM

Molecule: drotrecogin alfa
- mortality [8]: about 25%

- initial library screen result [1]: MUC1 dimerization inhibitory compounds
Molecule: O=c1c(O)c(-c2ccc(O)c(O)c2)oc2cc(O)ccc12 [Fisetin]
- inhibition of xanthine oxidase [9]: inhibit xanthine oxidase
